Assay results as given in article PMC12155096 (International Journal of Molecular Sciences, 2025).
Structures can show the parent of a compound that is named as a salt. Where two headings read alike, the source gives them in different places.

What was measured:
[1] = biological target: Photinus pyralis (firefly) luciferase (Photinus pyralis, UniProt P08659); assay: biochemical; format: biochemical
[2] = biological target: T1, human CYP1A2 (Homo sapiens, UniProt P05177)
T1 sequence (P05177 1-516): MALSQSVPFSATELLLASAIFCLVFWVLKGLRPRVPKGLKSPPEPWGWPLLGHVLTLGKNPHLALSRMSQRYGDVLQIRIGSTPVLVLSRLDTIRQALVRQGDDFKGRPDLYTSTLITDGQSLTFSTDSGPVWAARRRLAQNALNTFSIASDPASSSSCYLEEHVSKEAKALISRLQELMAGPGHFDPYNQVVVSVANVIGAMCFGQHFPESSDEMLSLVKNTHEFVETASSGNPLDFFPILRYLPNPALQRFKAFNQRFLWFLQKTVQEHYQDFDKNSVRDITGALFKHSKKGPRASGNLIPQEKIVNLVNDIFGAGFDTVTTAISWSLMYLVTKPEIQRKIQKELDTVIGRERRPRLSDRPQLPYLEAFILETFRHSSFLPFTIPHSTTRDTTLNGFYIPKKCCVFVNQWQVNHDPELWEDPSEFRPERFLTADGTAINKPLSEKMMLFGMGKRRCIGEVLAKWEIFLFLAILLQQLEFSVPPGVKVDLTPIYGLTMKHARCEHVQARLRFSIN

[3] = biological target: T2, human CYP2C9 (Homo sapiens, UniProt P11712)
[4] = biological target: T3, human CYP2C19 (Homo sapiens, UniProt P33261); details: for CYP2C19 Efficacy (in parenthesis): human
[5] = biological target: CYP3A4 (Homo sapiens, UniProt P08684)
[6] = biological target: T4, human CYP2D6 (Homo sapiens, UniProt P10635); assay: biochemical
[7] = biological target: T1, human CYP1A2; assay: biochemical
[8] = biological target: T2, human CYP2C9; assay: biochemical
[9] = biological target: T3, human CYP2C19; assay: biochemical
[10] = biological target: T4, human CYP2D6; details: human
[11] = CYP2D6 IC50 (half-maximal inhibitory concentration)
[12] = CYP1A2 IC50 (half-maximal inhibitory concentration)
[13] = CYP2C9 IC50 (half-maximal inhibitory concentration)
[14] = CYP2C19 IC50 (half-maximal inhibitory concentration)

T4 sequence (P10635 whole entry): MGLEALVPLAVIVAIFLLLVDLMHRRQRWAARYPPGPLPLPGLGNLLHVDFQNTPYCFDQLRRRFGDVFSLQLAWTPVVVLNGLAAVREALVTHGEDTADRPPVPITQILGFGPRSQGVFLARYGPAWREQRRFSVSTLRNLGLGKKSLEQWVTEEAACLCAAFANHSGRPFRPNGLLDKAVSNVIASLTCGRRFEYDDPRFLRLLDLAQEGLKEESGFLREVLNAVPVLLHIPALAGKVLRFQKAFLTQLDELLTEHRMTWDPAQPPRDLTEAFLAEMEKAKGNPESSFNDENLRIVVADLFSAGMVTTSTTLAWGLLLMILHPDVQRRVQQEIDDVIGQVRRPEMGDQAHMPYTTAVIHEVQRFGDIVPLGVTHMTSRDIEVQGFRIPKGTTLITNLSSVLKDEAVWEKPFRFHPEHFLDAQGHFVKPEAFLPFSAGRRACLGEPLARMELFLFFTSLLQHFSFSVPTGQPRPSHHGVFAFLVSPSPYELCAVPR
Sequence of Photinus pyralis (firefly) luciferase (P08659 whole entry): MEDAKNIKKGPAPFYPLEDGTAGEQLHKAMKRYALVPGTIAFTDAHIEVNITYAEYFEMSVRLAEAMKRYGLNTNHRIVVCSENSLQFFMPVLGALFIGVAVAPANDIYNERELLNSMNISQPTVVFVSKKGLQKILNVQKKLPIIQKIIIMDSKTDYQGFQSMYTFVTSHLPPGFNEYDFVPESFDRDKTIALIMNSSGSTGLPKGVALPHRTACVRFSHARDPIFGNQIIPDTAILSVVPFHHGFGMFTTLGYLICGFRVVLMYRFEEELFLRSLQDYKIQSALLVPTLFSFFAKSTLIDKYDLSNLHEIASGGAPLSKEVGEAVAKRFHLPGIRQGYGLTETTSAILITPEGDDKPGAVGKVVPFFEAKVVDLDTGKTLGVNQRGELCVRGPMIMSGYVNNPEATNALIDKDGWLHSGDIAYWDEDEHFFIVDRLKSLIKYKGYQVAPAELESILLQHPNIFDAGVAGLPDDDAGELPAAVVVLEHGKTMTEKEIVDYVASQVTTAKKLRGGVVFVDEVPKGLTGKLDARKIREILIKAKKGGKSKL
T2 sequence (P11712 whole entry): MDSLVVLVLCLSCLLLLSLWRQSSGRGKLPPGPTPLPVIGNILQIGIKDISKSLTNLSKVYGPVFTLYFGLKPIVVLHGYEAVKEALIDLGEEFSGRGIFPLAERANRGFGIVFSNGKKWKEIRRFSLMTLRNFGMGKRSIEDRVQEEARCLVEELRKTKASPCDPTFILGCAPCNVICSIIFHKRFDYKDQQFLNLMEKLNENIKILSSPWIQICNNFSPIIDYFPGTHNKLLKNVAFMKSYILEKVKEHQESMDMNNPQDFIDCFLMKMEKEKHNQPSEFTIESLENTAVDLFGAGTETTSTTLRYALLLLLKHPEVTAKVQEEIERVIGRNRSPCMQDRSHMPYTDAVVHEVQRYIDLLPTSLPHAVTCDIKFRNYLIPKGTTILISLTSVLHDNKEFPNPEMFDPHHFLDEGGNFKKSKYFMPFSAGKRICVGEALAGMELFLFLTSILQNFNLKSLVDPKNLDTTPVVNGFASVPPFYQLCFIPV
Sequence of CYP3A4 (P08684 whole entry): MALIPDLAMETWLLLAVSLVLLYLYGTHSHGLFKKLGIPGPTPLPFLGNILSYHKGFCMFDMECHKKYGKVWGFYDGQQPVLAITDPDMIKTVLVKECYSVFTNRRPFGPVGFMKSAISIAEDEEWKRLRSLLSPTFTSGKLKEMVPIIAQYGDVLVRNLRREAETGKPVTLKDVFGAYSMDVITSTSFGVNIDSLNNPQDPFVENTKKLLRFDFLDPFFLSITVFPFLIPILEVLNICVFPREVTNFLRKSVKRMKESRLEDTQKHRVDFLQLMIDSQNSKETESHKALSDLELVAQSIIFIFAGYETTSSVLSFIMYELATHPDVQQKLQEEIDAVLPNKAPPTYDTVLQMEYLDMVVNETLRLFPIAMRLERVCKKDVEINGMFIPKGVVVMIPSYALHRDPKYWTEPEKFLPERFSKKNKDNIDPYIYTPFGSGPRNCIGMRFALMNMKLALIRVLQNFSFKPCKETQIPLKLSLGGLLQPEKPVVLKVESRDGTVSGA
T3 sequence (P33261 whole entry): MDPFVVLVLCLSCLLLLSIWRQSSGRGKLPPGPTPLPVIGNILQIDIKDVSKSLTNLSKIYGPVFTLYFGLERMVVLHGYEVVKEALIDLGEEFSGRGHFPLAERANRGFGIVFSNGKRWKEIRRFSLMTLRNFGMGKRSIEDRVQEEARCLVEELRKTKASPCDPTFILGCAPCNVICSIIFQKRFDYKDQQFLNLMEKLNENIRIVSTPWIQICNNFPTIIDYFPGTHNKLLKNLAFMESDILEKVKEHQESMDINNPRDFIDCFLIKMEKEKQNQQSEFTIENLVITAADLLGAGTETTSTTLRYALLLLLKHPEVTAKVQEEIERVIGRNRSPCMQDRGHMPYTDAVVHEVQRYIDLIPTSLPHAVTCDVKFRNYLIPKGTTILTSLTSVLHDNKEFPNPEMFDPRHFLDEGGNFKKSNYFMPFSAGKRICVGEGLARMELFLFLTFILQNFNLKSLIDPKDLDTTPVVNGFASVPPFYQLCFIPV

O=C(CCCN1CCC2(CC1)C(=O)NCN2c1ccccc1)c1ccc(F)cc1 [Spiperone]
Luciferase IC50 [1]: Inactive
CYP1A2 IC50 [2]: Inactive
CYP2C9 IC50 [3]: Inactive
CYP2C19 IC50 [4]: Inactive
CYP3A4 IC50 [5]: Inactive
IC50 ([6]; CYP2D6 IC50, mean ± standard deviation from three experiments): 0.79 ± 0.18 µM

CCCC[N+](CCCC)(CCCC)CCCC [Tetrabutylammonium bromide]
Luciferase IC50 [1]: Inactive
CYP1A2 IC50 [2]: Inactive
CYP2C9 IC50 [3]: Inactive
CYP2C19 IC50 [4]: Inactive
CYP3A4 IC50 [5]: Inactive
IC50 ([6]; CYP2D6 IC50): 0.01 µM

c1ccc2c(c1)Sc1ccccc1N2CC1CN2CCC1CC2 (stereo not shown) [Mequitazine]
Luciferase IC50 (half-maximal inhibitory concentration) [1]: Inactive
CYP1A2 IC50 (half-maximal inhibitory concentration) [2]: Inactive
CYP2C9 IC50 (half-maximal inhibitory concentration) [3]: Inactive
CYP2C19 IC50 (half-maximal inhibitory concentration) [4]: Inactive
CYP3A4 IC50 (half-maximal inhibitory concentration) [5]: Inactive
IC50 [6, 11]: 0.29 µM

CCN(CC)c1c([N+](=O)[O-])cc(C(F)(F)F)c(N)c1[N+](=O)[O-] [Dinitramine]
Luciferase IC50 (half-maximal inhibitory concentration) [1]: Inactive
CYP3A4 IC50 (half-maximal inhibitory concentration) [5]: Inactive
IC50 [7, 12]: 0.3 µM
IC50 [8, 13]: 74.5 µM
IC50 [9, 14]: 19.3 µM
IC50 [6, 11]: 55.8 µM

OC(CCCN1CCCCC1)(c1ccccc1)c1ccccc1 [Diphenidol]
Luciferase IC50 (half-maximal inhibitory concentration) [1]: Inactive
CYP1A2 IC50 (half-maximal inhibitory concentration) [2]: Inactive
CYP2C9 IC50 (half-maximal inhibitory concentration) [3]: Inactive
CYP3A4 IC50 (half-maximal inhibitory concentration) [5]: Inactive
IC50 [9, 14]: 32.7 µM
IC50 [6, 11]: 0.09 µM

CN1[C@@H]2CC[C@H]1C[C@@H](NC(=O)n1c(=O)[nH]c3ccccc31)C2 [Itasetron]
Luciferase IC50 (half-maximal inhibitory concentration) [1]: Inactive
CYP1A2 IC50 (half-maximal inhibitory concentration) [2]: Inactive
CYP2C9 IC50 (half-maximal inhibitory concentration) [3]: Inactive
CYP2C19 IC50 (half-maximal inhibitory concentration) [4]: Inactive
CYP3A4 IC50 (half-maximal inhibitory concentration) [5]: Inactive
IC50 [6]: 0.87 ± 0.1 µM

CN1CCCC(CC2c3ccccc3Sc3ccccc32)C1 (stereo not shown) [Metixene hydrochloride]
Luciferase IC50 (half-maximal inhibitory concentration) [1]: Inactive
CYP1A2 IC50 (half-maximal inhibitory concentration) [2]: Inactive
CYP2C9 IC50 (half-maximal inhibitory concentration) [3]: Inactive
CYP3A4 IC50 (half-maximal inhibitory concentration) [5]: Inactive
IC50 [9, 14]: 7.76 µM
IC50 [6, 11]: 0.44 µM

COc1ccc(-c2coc3cc(O)ccc3c2=O)cc1 [Formononetin]
IC50 [1]: 3.18 µM
CYP3A4 IC50 (half-maximal inhibitory concentration) [5]: Inactive
IC50 [7, 12]: 14.4 µM
IC50 [8, 13]: 0.29 µM
IC50 [9, 14]: 62.3 µM
IC50 [6, 11]: 51.6 µM

CC(COc1ccccc1)N(CCCl)Cc1ccccc1 (stereo not shown) [Phenoxybenzamine hydrochloride]
Luciferase IC50 (half-maximal inhibitory concentration) [1]: Inactive
CYP3A4 IC50 (half-maximal inhibitory concentration) [5]: Inactive
IC50 [7, 12]: 65.8 µM
IC50 [8, 13]: 22.8 µM
IC50 [9, 14]: 2.44 µM
IC50 [6, 11]: 0.38 µM

c1ccc2c(c1)-c1cccc3cccc-2c13 [Fluoranthene]
IC50 [1]: 62.1 µM
CYP3A4 IC50 [5]: Inactive
IC50 ([7]; CYP1A2 IC50): 0.73 µM
IC50 [8]: 67.8 µM
IC50 ([9]; CYP2C19 IC50): 50.2 µM
IC50 ([6]; CYP2D6 IC50): 21.5 µM

C1CCC(NC2CCCCC2)CC1 [Dicyclohexylamine]
Luciferase IC50 [1]: Inactive
CYP1A2 IC50 [2]: Inactive
CYP2C9 IC50 [3]: Inactive
CYP2C19 IC50 [4]: Inactive
CYP3A4 IC50 [5]: Inactive
IC50 [6]: 0.28 µM

CN(C)CCCSc1ccccc1NC(=O)/C=C/c1ccccc1 [Cinanserin]
Luciferase IC50 (half-maximal inhibitory concentration) [1]: Inactive
CYP1A2 IC50 (half-maximal inhibitory concentration) [2]: Inactive
CYP2C9 IC50 (half-maximal inhibitory concentration) [3]: Inactive
CYP2C19 Efficacy (in parenthesis) [4]: 29.59 ± 16.13 (-78 ± 38) %
CYP2D6 Efficacy (in parenthesis) [10]: 0.52 ± 0.22 (-96 ± 14) %
CYP3A4 IC50 (half-maximal inhibitory concentration) [5]: Inactive
IC50 [9, 14]: 29.6 µM
IC50 [6, 11]: 0.52 µM

CCCCN(CCCC)CCCOC(=O)c1ccc(N)cc1 [Butacaine]
Luciferase IC50 (half-maximal inhibitory concentration) [1]: Inactive
CYP3A4 IC50 (half-maximal inhibitory concentration) [5]: Inactive
IC50 [7, 12]: 22.4 µM
IC50 [8, 13]: 26.4 µM
IC50 [9, 14]: 38.9 µM
IC50 [6, 11]: 0.03 µM

COC(=O)C1=C(C)NC(C)=C(C(=O)OCCN2CCN(C(c3ccccc3)c3ccccc3)CC2)C1c1cccc([N+](=O)[O-])c1 (stereo not shown) [Manidipine]
Luciferase IC50 (half-maximal inhibitory concentration) [1]: Inactive
CYP1A2 IC50 (half-maximal inhibitory concentration) [2]: Inactive
CYP3A4 IC50 (half-maximal inhibitory concentration) [5]: Inactive
IC50 [8]: 0.52 ± 0.3 µM
IC50 [9]: 2.39 ± 2.01 µM
IC50 [6]: 6.17 ± 5.32 µM

c1ccc2cc3c(ccc4ccccc43)cc2c1 [Benz(a)anthracene]
IC50 [1]: 6.12 µM
CYP3A4 IC50 [5]: Inactive
IC50 ([7]; CYP1A2 IC50): 0.86 µM
IC50 ([8]; CYP2C9 IC50): 36.4 µM
IC50 ([9]; CYP2C19 IC50): 15.9 µM
IC50 ([6]; CYP2D6 IC50): 50.5 µM

CN1CCC(N(Cc2ccccc2)c2ccccc2)CC1 [Bamipine]
Luciferase IC50 [1]: Inactive
CYP1A2 IC50 [2]: Inactive
CYP2C9 IC50 [3]: Inactive
CYP3A4 IC50 [5]: Inactive
IC50 [9]: 36.8 µM
IC50 [6]: 0.38 µM

CN(Cc1ccc(C(C)(C)C)cc1)Cc1cccc2ccccc12 [Butenafine]
Luciferase IC50 [1]: Inactive
CYP3A4 IC50 [5]: Inactive
IC50 ([7]; CYP1A2 IC50): 24.6 µM
IC50 ([8]; CYP2C9 IC50): 16.3 µM
IC50 ([9]; CYP2C19 IC50): 9.91 µM
IC50 ([6]; CYP2D6 IC50): 0.39 µM

CC(CN1c2ccccc2Sc2ccccc21)N(C)C (stereo not shown) [Promethazine hydrochloride]
Luciferase IC50 (half-maximal inhibitory concentration) [1]: Inactive
CYP3A4 IC50 (half-maximal inhibitory concentration) [5]: Inactive
IC50 [7, 12]: 2.23 µM
IC50 [9, 14]: 14.5 µM
IC50 [6, 11]: 0.89 µM

Cc1nc2n(c(=O)c1CCN1CCC(C(=O)c3ccc(F)cc3)CC1)CCS2 [Setoperone]
Luciferase IC50 [1]: Inactive
CYP2C19 IC50 [4]: Inactive
CYP3A4 IC50 [5]: Inactive
IC50 [7]: 32.3 ± 4.12 µM
IC50 [8]: 27.2 ± 16.6 µM
IC50 [6]: 0.48 ± 0.08 µM

CCOC(=O)COc1ccc2c(c1)C[C@@H](NC[C@H](O)c1cccc(Cl)c1)CC2 [SR58611]
Luciferase IC50 (half-maximal inhibitory concentration) [1]: Inactive
CYP1A2 IC50 (half-maximal inhibitory concentration) [2]: Inactive
CYP3A4 IC50 (half-maximal inhibitory concentration) [5]: Inactive
IC50 [8]: 31 ± 4.26 µM
IC50 [9]: 35.2 ± 8.79 µM
IC50 [6]: 0.66 ± 0.18 µM

NC(=O)C(c1ccccc1)(c1ccccc1)[C@@H]1CCN(CCc2ccc3c(c2)CCO3)C1 [Darifenacin hydrobromide]
Luciferase IC50 (half-maximal inhibitory concentration) [1]: Inactive
CYP1A2 IC50 (half-maximal inhibitory concentration) [2]: Inactive
CYP2C9 IC50 (half-maximal inhibitory concentration) [3]: Inactive
CYP2C19 IC50 (half-maximal inhibitory concentration) [4]: Inactive
CYP2D6 Efficacy (in parenthesis) [10]: 0.41 ± 0.07 (-99 ± 4) %
CYP3A4 IC50 (half-maximal inhibitory concentration) [5]: Inactive
IC50 [6, 11]: 0.41 µM

COC1CC(=C(c2cccs2)c2cccs2)C[N+](C)(C)C1 (stereo not shown) [Timepidium bromide]
Luciferase IC50 [1]: Inactive
CYP1A2 IC50 [2]: Inactive
CYP2C9 IC50 [3]: Inactive
CYP2C19 IC50 [4]: Inactive
CYP3A4 IC50 [5]: Inactive
IC50 ([6]; CYP2D6 IC50): 0.29 µM

CC(C(O)c1ccccc1)N(C)C/C=C/c1ccccc1 (stereo not shown) [Cinnamedrine]
Luciferase IC50 (half-maximal inhibitory concentration) [1]: Inactive
CYP3A4 IC50 (half-maximal inhibitory concentration) [5]: Inactive
IC50 [7]: 16.4 µM
IC50 [8]: 16.1 µM
IC50 [9]: 1.46 µM
IC50 [6]: 0.11 µM

CC(Cc1ccccc1)N(C)Cc1ccco1 (stereo not shown) [Furfenorex]
Luciferase IC50 [1]: Inactive
CYP1A2 IC50 [2]: Inactive
CYP2C9 IC50 [3]: Inactive
CYP3A4 IC50 [5]: Inactive
IC50 ([9]; CYP2C19 IC50): 6.65 µM
IC50 ([6]; CYP2D6 IC50): 0.85 µM

CN1CCCCC1CCN1c2ccccc2Sc2ccc([S+](C)[O-])cc21 (stereo not shown) [Mesoridazine]
Luciferase IC50 (half-maximal inhibitory concentration) [1]: Inactive
CYP1A2 IC50 (half-maximal inhibitory concentration) [2]: Inactive
CYP2C9 IC50 (half-maximal inhibitory concentration) [3]: Inactive
CYP2C19 IC50 (half-maximal inhibitory concentration) [4]: Inactive
CYP3A4 IC50 (half-maximal inhibitory concentration) [5]: Inactive
IC50 [6, 11]: 0.09 µM

Clc1ccccc1C(c1ccccc1)(c1ccccc1)n1ccnc1 [Clotrimazole]
Luciferase IC50 (half-maximal inhibitory concentration) [1]: Inactive
CYP1A2 Efficacy (in parenthesis) ([2]; human): 9.92 ± 2.76 (-108 ± 12) %
CYP2C9 Efficacy (in parenthesis) ([3]; human): 1.14 ± 0.44 (-107 ± 6) %
CYP2C19 Efficacy (in parenthesis) [4]: 3.88 ± 0.66 (-140 ± 14) %
CYP2D6 Efficacy (in parenthesis) [10]: 46.25 ± 14.89 (-110 ± 18) %
CYP3A4 Efficacy (in parenthesis) [5]: 0.02 ± 0.01 (-96 ± 6) %
IC50 [8, 13]: 1.14 µM
IC50 [9, 14]: 3.88 µM
IC50 [6, 11]: 46.2 µM

Oc1cc(Cl)ccc1Oc1ccc(Cl)cc1Cl [Triclosan]
Luciferase IC50 [1]: Inactive
CYP3A4 IC50 [5]: Inactive
IC50 ([7]; CYP1A2 IC50): 20.8 µM
IC50 ([9]; CYP2C19 IC50): 0.71 µM
IC50 ([6]; CYP2D6 IC50): 32.8 µM
